Source: article PMC9331678 (Molecules, 2022)

Columns and labels:
[1] = 6 h benchtop (early preanalytical) stability in whole blood and in plasma; type: in vitro ADME, human
Experimental: Six independent plasma samples were processed. The reference solutions were 140 µL acetonitrile-water 4:1 (v/v) mixtures spiked as described above. The mixtures and the reference solutions were subsequently diluted with 90 µL water. Internal standard-corrected matrix factors were calculated as the peak area ratios of the analytes and the internal standards in prepared plasma versus those in a neat solution. In the stability studies, the recoveries of IBR and DIB were calculated as the ratio of the concentrations measured after incubation and those measured at the beginning of the study.
The preanalytical stability of IBR and DIB was evaluated by adding 20 µL methanol solutions containing 500 ng/mL IBR and DIB to two 1.0 mL aliquots of blood freshly drawn into phlebotomy tubes containing K3-EDTA. Three samples, 3 mL each, were taken from three healthy volunteers (manuscript authors G.B.K., I.V. and Z.K.). One of the fractions was centrifuged at 3000 rpm and 10 °C for 10 min immediately after spiking the analytes, and plasma was separated. Both spiked whole blood and the separated plasma were kept at ambient temperature for 6 h. […] Fifty microliters was drawn from the supernatant of the whole blood sample as well as from the plasma, and was processed as described in Section 2.2.

[2] = Stability in plasma at −70 °C; type: in vitro ADME
[3] = population modeling study; cited from earlier work
[4] = 24 h therapeutic monitoring and noncompartmental pharmacokinetics in chronic lymphocytic leukemia patients receiving IBR; conditions: plasma; for mean DIB/IBR concentration ratio: three patients; for concentration at 0.5 h: 0.5 h postdose; for concentration at 1 h: 1 h postdose
Experimental: In order to provide a proof of concept, IBR and DIB were assayed in the plasma samples of three patients treated with IBR. […] The criteria for inclusion were (1) age of ≥18 years, (2) treatment ongoing with IBR for more than 10 days, and (3) no concurrent administration of medications undergoing CYP3A4 metabolism. The subjects gave their written informed consent. Each participant took either two or three 140 mg Imbruvica capsules, as per the therapeutic provision, in the presence of the recruiting clinician.
Blood samples were centrifuged at 3000 rpm for 10 min in a Hettich Universal 320R centrifuge (Auro-Science, Budapest, Hungary) at 10 °C. Plasma was separated and frozen at −70 °C until analysis was done within 2 weeks.

[5] = Patient 1, 420 mg IBR per day, steady state
[6] = Patient 2, 420 mg IBR per day, steady state
[7] = Patient 3, 280 mg IBR per day, steady state
[8] = human, oral, 280 mg/day, Conc., subj=3 (280 mg IBR per day)
[9] = human, oral, 420 mg, Conc., subj=1 (420 mg IBR per day)

In the case of `Nc1ncnc2c1c(-c1ccc(Oc3ccccc3)cc1)nn2[C@@H]1CCCN(C(=O)C(O)CO)C1` (stereo partly drawn) [Dihydrodiol Ibrutinib, 1-[(3R)-3-[4-amino-3-(4-phenoxyphenyl)pyrazolo[3,4-d]pyrimidin-1-yl]piperidin-1-yl]-2,3-dihydroxypropan-1-one], the recovery at 9.8 ng/mL ([1]; human, plasma (separated from spiked K3-EDTA whole blood), plasma, ambient temperature (25 °C), up to 6 h, all analyses) is reported as no less than 85%, the stability ([1]; whole blood and plasma kept at ambient temperature for 6 h) is reported as “acceptable for clinical use” and the “cases with recoveries lower than 85% (of fifteen analyses)” value ([1]; whole blood, ambient temperature (25 °C), up to 6 h) is reported as “one”. For the same molecule, the stability in plasma [2] was 3 month, the “interindividual variability in the clearance” value [3] was 51% and the “intraindividual variability in the clearance” value [3] was 26%. The “AUC0–24” value [4, 5] was 2347 nmol·L/h, the “AUMC0–24” value [4, 5] was 16,593 nmol × L and the “AUC0–24” value [4, 6] was 2528 nmol·L/h. For the same molecule, the “AUMC0–24” value [4, 6] was 11,626 nmol × L, the “AUC0–24” value [4, 7] was 1800 nmol·L/h and the “AUMC0–24” value [4, 7] was 8172 nmol·L. For the same molecule, the “mean DIB/IBR concentration ratio” value ([4]; at 4 h postdose) was 2.36 ± 1.69, the “mean DIB/IBR concentration ratio” value ([4]; at the trough (23–24 h)) was 3.34–3.44 and the “mean DIB/IBR concentration ratio” value ([4]; between 0.5–2 h postdose) was 0.96–1.19. For the same molecule, the AUC ([4]; human, oral, 280 mg, AUCALL AUC All, subj=3 (280 mg IBR per day), steady state) was 1.8 µM·h, the AUC(0-inf) ([4]; human, oral, 280 mg, AUCIFO AUC Infinity Obs, subj=3 (280 mg IBR per day), steady state) was 1.88 µM·h and the AUC(0-inf) ([4]; human, oral, 280 mg, AUCIFP AUC Infinity Pred, subj=3 (280 mg IBR per day), steady state) was 1.88 µM·h. The AUC ([4]; human, oral, 280 mg, AUCLST AUC to Last Nonzero Conc, subj=3 (280 mg IBR per day), steady state) was 1.8 µM·h, the Cmax ([4]; human, oral, 280 mg, CMAX Max Conc, subj=3 (280 mg IBR per day), steady state) was 217 nM and the k el ([4]; human, oral, 280 mg, LAMZ Lambda z, subj=3 (280 mg IBR per day), steady state) was 3.39e-05 s⁻¹. The half-life ([4]; human, oral, 280 mg, LAMZHL Half-Life Lambda z, subj=3 (280 mg IBR per day), steady state) was 5.68 h, the MRT last ([4]; human, oral, 280 mg, MRT0–24, Patient 3, 280 mg IBR per day, steady state) was 4.54 h and the MRT ([4]; human, oral, 280 mg, MRTEVIFO MRT Extravasc Infinity Obs, subj=3 (280 mg IBR per day), steady state) was 5.75 h. For the same molecule, the MRT ([4]; human, oral, 280 mg, MRTEVIFP MRT Extravasc Infinity Pred, subj=3 (280 mg IBR per day), steady state) was 5.72 h, the MRT ([4]; human, oral, 280 mg, MRTEVLST MRT Extravasc to Last Nonzero Conc, subj=3 (280 mg IBR per day), steady state) was 4.54 h and the Cmax ([4]; human, oral, 280 mg, cmax, Patient 3, 280 mg IBR per day, steady state) was 217 nM. The k el ([4]; human, oral, 280 mg, ke, Patient 3, 280 mg IBR per day, steady state) was 3.39e-05 s⁻¹, the half-life ([4]; human, oral, 280 mg, t1/2, Patient 3, 280 mg IBR per day, steady state) was 5.68 h and the Tmax ([4]; human, oral, 280 mg, tmax, Patient 3, 280 mg IBR per day, steady state) was 2 h. The concentration at 24 h ([4]; human, oral, 280 mg/day, CLST Last Nonzero Conc, subj=3 (280 mg IBR per day), 24 h) was 10.1 nM, the concentration at 24 h ([4]; human, oral, 280 mg/day, CLSTP Last Nonzero Conc Pred, subj=3 (280 mg IBR per day), 24 h) was 9.84 nM and the concentration at 0.5 h [4, 8] was 50.4 nM. It also gave a concentration at 1 h [4, 8] of 195 nM, a concentration at 2 h ([4]; human, oral, 280 mg/day, Conc., subj=3 (280 mg IBR per day), 2 h postdose) of 217 nM and a concentration at 4 h ([4]; human, oral, 280 mg/day, Conc., subj=3 (280 mg IBR per day), 4 h postdose) of 113 nM. For the same molecule, the concentration at 23 h ([4]; human, oral, 280 mg/day, Conc., subj=3 (280 mg IBR per day), 23 h postdose) was 10.8 nM, the concentration at 24 h ([4]; human, oral, 280 mg/day, Conc., subj=3 (280 mg IBR per day), 24 h postdose) was 10.1 nM and the AUC ([4]; human, oral, 420 mg, AUCALL AUC All, subj=1 (420 mg IBR per day), steady state) was 2.35 µM·h. It also gave an AUC ([4]; human, oral, 420 mg, AUCALL AUC All, subj=2 (420 mg IBR per day), steady state) of 2.53 µM·h, an AUC(0-inf) ([4]; human, oral, 420 mg, AUCIFO AUC Infinity Obs, subj=1 (420 mg IBR per day), steady state) of 2.85 µM·h and an AUC(0-inf) ([4]; human, oral, 420 mg, AUCIFO AUC Infinity Obs, subj=2 (420 mg IBR per day), steady state) of 2.63 µM·h. The AUC(0-inf) ([4]; human, oral, 420 mg, AUCIFP AUC Infinity Pred, subj=1 (420 mg IBR per day), steady state) was 2.88 µM·h, the AUC(0-inf) ([4]; human, oral, 420 mg, AUCIFP AUC Infinity Pred, subj=2 (420 mg IBR per day), steady state) was 2.63 µM·h and the AUC ([4]; human, oral, 420 mg, AUCLST AUC to Last Nonzero Conc, subj=1 (420 mg IBR per day), steady state) was 2.35 µM·h. It also gave an AUC ([4]; human, oral, 420 mg, AUCLST AUC to Last Nonzero Conc, subj=2 (420 mg IBR per day), steady state) of 2.53 µM·h, a concentration at 24 h ([4]; human, oral, 420 mg, CLST Last Nonzero Conc, subj=1 (420 mg IBR per day), 24 h) of 34.6 nM and a concentration at 24 h ([4]; human, oral, 420 mg, CLST Last Nonzero Conc, subj=2 (420 mg IBR per day), 24 h) of 13.2 nM. For the same molecule, the concentration at 24 h ([4]; human, oral, 420 mg, CLSTP Last Nonzero Conc Pred, subj=1 (420 mg IBR per day), 24 h) was 36.5 nM, the concentration at 24 h ([4]; human, oral, 420 mg, CLSTP Last Nonzero Conc Pred, subj=2 (420 mg IBR per day), 24 h) was 13 nM and the Cmax ([4]; human, oral, 420 mg, CMAX Max Conc, subj=1 (420 mg IBR per day), steady state) was 185 nM. It also gave a Cmax ([4]; human, oral, 420 mg, CMAX Max Conc, subj=2 (420 mg IBR per day), steady state) of 254 nM, a concentration at 0.5 h [4, 9] of 53.4 nM and a concentration at 1 h [4, 9] of 139 nM.
